What all share (format): functional, cell-based
For data set [1], the target named is T1, Hepatic sodium/bile acid cotransporter (Rattus norvegicus, UniProt P26435).
T1 sequence (P26435 whole entry): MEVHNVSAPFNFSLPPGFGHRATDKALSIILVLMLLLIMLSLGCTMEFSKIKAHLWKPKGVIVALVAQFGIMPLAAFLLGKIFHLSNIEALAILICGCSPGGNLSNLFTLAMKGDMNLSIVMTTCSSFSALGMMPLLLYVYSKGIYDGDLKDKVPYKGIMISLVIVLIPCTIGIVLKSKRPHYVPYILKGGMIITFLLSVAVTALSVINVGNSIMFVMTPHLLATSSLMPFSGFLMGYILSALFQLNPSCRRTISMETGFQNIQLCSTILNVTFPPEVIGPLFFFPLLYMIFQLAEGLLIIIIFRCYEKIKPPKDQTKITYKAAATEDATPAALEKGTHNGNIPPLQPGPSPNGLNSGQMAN
As to the kind of experiment: TP_TRANSPORTER: uptake in Ntcp-expressing HPCT-1E3 cells.

In data set [2] the target is T1, Hepatic sodium/bile acid cotransporter. As to the kind of experiment: TP_TRANSPORTER: inhibition of Taurocholate uptake (Taurocholate: 10 uM, GC: 100 uM) in Ntcp-expressing HPCT-1E3 cells. The following applies: hpct-1e3, 100 µM.
Data set [3] shares this target. Description: TP_TRANSPORTER: inhibition of Taurocholate uptake (Taurocholate: 10 uM, Oligomycin: 0.01mg/mL) in Ntcp-expressing HPCT-1E3 cells.

SMILES strings stand for the structures.

In the case of `CCCCNc1cc(C(=O)O)cc(S(N)(=O)=O)c1Oc1ccccc1` [BUMETANIDE], in data set [1], the Activity entry was “is not a substrate [-]”.
Consider `C[C@H](CCC(=O)NCC(=O)O)[C@H]1CC[C@H]2[C@@H]3[C@H](O)C[C@@H]4C[C@H](O)CC[C@]4(C)[C@H]3C[C@H](O)[C@]12C` [GLYCOCHOLIC ACID], for which the Activity entry is “is not a substrate [-]” in data set [1] and “inhibitor [(at a rough estimate) 60 % of control]” in data set [2].
Consider `CC[C@H]1/C=C/C=C/C[C@@H](C)[C@H](O)[C@@](C)(O)C(=O)[C@@H](C)[C@H](O)[C@@H](C)C(=O)[C@@H](C)[C@H](O)[C@@H](C)/C=C/C(=O)O[C@@H]2[C@H](C)[C@H](CC1)O[C@]1(CC[C@H](C)[C@H](C[C@@H](C)O)O1)[C@H]2C` [OLIGOMYCIN], for which, in data set [3], the Activity result was “inhibitor [(at a rough estimate) 10 % of control]”.

The values are drawn from ChEMBL document CHEMBL2074132, “Functional characterization of the hepatic sodium-dependent taurocholate transporter stably transfected into an immortalized liver-derived cell line and V79 fibroblasts” (Eur J Cell Biol, 1996).
